Where two headings read alike, the source gives them in different places.
Experiments:
[1] = logP by HPLC (EEC directive 79/831 Annex V.A8, gradient method); type: physicochemical; details: for logP*: compounds of formula (IV), Table 2; for log P*: Table 1
[2] = tested on: Erysiphe graminis fsp. tritici; test: Erysiphe test (wheat)/protective; type: in vivo; details: protective, application rate 500 g/ha, evaluation 7 days after inoculation, 100% = no infection
Description: (§1) To produce a suitable preparation of active compound, I part by weight of active compound is mixed with the stated amounts of solvent and emulsifier, and the concentrate is diluted with water to the desired concentration.
To test for protective activity, young plants are sprayed with the preparation of active compound at the stated application rate.
After the spray coating has dried on, the plants are dusted with spores of Erysiphe graminis fsp. tritici.
(§2) The plants are placed in a greenhouse at a temperature of about 20° C. and a relative atmospheric humidity of about 80% to promote the development of mildew pustules.
(§3) Evaluation is carried out 7 days after the inoculation. 0% means an efficacy which corresponds to that of the control, whereas an efficacy of 100% means that no infection is observed.

[3] = tested on: Erysiphe graminis f.sp. hordei; test: Erysiphe test (cucumber)/protective; type: in vivo; details: protective, application rate 500 g/ha, evaluation 7 days after inoculation; 100% = no infection
Description: as §1, with “1” for “I”, “concentration. To test for protective activity, young plants are sprayed with the preparation of active” for “concentration.”
compound at the stated application rate.
After the spray coating has dried on, the plants are dusted with spores of Erysiphe graminis f.sp. hordei.
as §2, §3

[4] = gradient method, acetonitrile/0.1% aqueous phosphoric acid
[5] = gradient method, acetonitrile/0.1% aqueous phosphoric acid, compounds of formula (I), Table 1, read-out: log P*
[6] = preparation example, read-out: HPLC: logP
[7] = gradient method, acetonitrile/0.1% aqueous phosphoric acid, compounds of formula (I)

| Structure (SMILES) | logP* [1, 4] | log P* [1, 7] | also measured |
| --- | --- | --- | --- |
| CCCOc1n[nH]c(=O)c2cc(Br)ccc12 [(IV-2)] | 2.66 |  |  |
| CCCOc1n[nH]c(=O)c2ccc(Br)cc12 [(IV-3)] | 2.71 |  |  |
| CCC(C)Oc1n[nH]c(=O)c2ccc(Br)cc12 (stereo not shown) [(IV-4)] | 3.12 |  |  |
| CCC(C)Oc1n[nH]c(=O)c2cc(Cl)c(Cl)cc12 (stereo not shown) [(IV-5)] | 3.62 |  |  |
| CC(C)COc1n[nH]c(=O)c2cc(Cl)c(Cl)cc12 [(IV-6)] | 3.64 |  |  |
| CCCOc1nn(CCC)c(=O)c2cc(Br)ccc12 [Example 1, 7-bromo-4-propoxy-2-propyl-1(2H)-phthalazinone] |  |  | chromatographic logP [1, 5]: 4.76; chromatographic logP [1, 6]: 4.76 |
| CCCOc1nn(CCC(C)C)c(=O)c2ccc(Br)cc12 [Example 2, 6-bromo-2-isopentyl-4-propoxy-1 (2H)-phthalazinone] |  |  | chromatographic logP [1, 5]: 5.91; chromatographic logP [1, 6]: 5.91 |
| CCCOc1nn(CCC)c(=O)c2ccc(Br)cc12 [Example 4] |  | 4.8 | efficacy [2]: 100% |
| CCC(C)Oc1nn(C(C)CC)c(=O)c2cc(Br)ccc12 (stereo not shown) [Example 9] |  | 5.52 |  |
| CCCOc1nn(CCC)c(=O)c2cc(Cl)c(Cl)cc12 [Example 10] |  | 5.51 | efficacy [2]: 100% |
| CCCCOc1nn(CCCC)c(=O)c2cc(Cl)c(Cl)cc12 [Example 11] |  | 6.71 | efficacy [2]: 100%; efficacy [3]: 100% |
| CCC(C)Oc1nn(C(C)CC)c(=O)c2cc(Cl)c(Cl)cc12 (stereo not shown) [Example 12] |  | 3.62 |  |
| CC(C)COc1nn(CC(C)C)c(=O)c2cc(Cl)c(Cl)cc12 [Example 13] |  | 6.46 |  |
| CCCOc1cc2c(OCCC)nn(CCC)c(=O)c2cc1F [Example 15] |  | 4.82 |  |
| CCCOc1cc2c(=O)n(CCC)nc(OCCC)c2cc1F [Example 16] |  | 5.26 |  |
| CCC(C)Oc1n[nH]c(=O)c2cc(Br)ccc12 (stereo not shown) [Example (IV-1), 7-bromo-4-sec-butoxy-1 (2H)-phthalazinone] |  |  | chromatographic logP [1, 6]: 3.01 |
